Literature values, collected in patent US20240287072A1, “SOLID STATE FORMS OF LUMATEPERONE SALTS AND PROCESSES FOR PREPARATION OF LUMATEPERONE AND SALTS THEREOF” (TEVA PHARMACEUTICALS INTERNATIONAL GMBH, priority 2018, published 2024).
Counter-ions that a name gives are not always drawn.

Assays:
[1] = hydrochloride salt disclosed in U.S. Pat. No. 7,183,282
[2] = hydrochloride salt disclosed in U.S. Pat. No. 7,183,282; remark: listed apart in the source
[3] = free base form, oily, sticky solid

Row | stability [1] | hygroscopicity [2] | solubility [3] | SMILES
1 | poor | hygroscopic |  | CN1CCN2c3c(cccc31)[C@@H]1CN(CCCC(=O)c3ccc(F)cc3)CC[C@@H]12 [hydrochloride salt of lumateperone]
2 |  |  | poor | CN1CCN2c3c(cccc31)[C@@H]1CN(CCCC(=O)c3ccc(F)cc3)CC[C@@H]12 [lumateperone, 1-(4-fluorophenyl)-4-((6bR, 10aS)-3-methyl-2,3,6b,9,10,10a-hexahydro-1H-pyrido[3′,4′:4,5]pyrrolo[1,2,3-de]quinoxalin-8(7H)-yl)butan-1-one]
